According to article PMC6776084 (ChemMedChem, 2009):
Where two headings read alike, the source gives them in different places.

Experiments:
[1] = system: cellular thymidine kinase (TK); settings: cited from earlier work
HIV = settings: qualitative; cited from earlier work
[2] = system: HIV-1 based vector containing wild-type (wt) HIV-1 RT; format: cell-based; settings: for EC50: read-out: EC50(HOS-313), HOS-313 cells (HSV-1 TK), 48 h, wt HIV-1 RT vector
HOS-313 cells = format: cell-based, human; settings: read-out: CC50(HOS-313), absence of virus, ATP level
[3] = system: HIV-1 based vector containing wild-type (wt) HIV-1 RT; settings: for EC50: read-out: EC50(HOS), HOS cells, 48 h, wt HIV-1 RT vector

Cc1cn([C@H]2C[C@H](N=[N+]=[N-])[C@@H](CO)O2)c(=O)[nH]c1=O [AZT]
Affinity for cellular thymidine kinase (TK) ([1]; qualitative): equivalent to that of thymidine itself

Cc1cn([C@H]2C[C@H](O)[C@]3(CO)C[C@H]23)c(=O)[nH]c1=O [Compound 3a, North-methanocarbathymidine]
Anti-HIV activity (HIV): inactive

Nc1ncnc2c1ncn2[C@H]1C=C[C@]2(CO)C[C@H]12 [Compound 4c, ((1′R, 4′S, 5′S)-4-(6-Amino-9H-purin-9-yl)bicyclo[3.1.0]hex-2-en-1-yl)methanol]
EC50 [2]: 11.1 µM
CC50 (HOS cells; read-out: CC50(HOS), HOS cells, absence of virus, ATP level): 423 µM
CC50 (HOS-313 cells): 246 µM
Anti-HIV activity (HIV-1): active
Selectivity index (cytotoxicity versus infectivity), HOS cells [3]: 25 fold
EC50 [3]: 16.7 µM

Nc1ccn([C@H]2C=C[C@]3(CO)C[C@H]23)c(=O)n1 [Compound 4d, 4-Amino-1-((1′S, 2′S, 5′R)-5-(hydroxymethyl)bicyclo[3.1.0]hex-3-en-2-yl)pyrimidin-2(1H)-one]
Cytotoxicity (qualitative) (HOS cells): relatively non-toxic
Anti-HIV activity (HIV-1): inactive

Cc1cn([C@@]23C=C[C@@H](CO)[C@@H]2C3)c(=O)[nH]c1=O [Compound 6a, 1-((1′S, 4′R, 5′S)-4-(Hydroxymethyl)bicyclo[3.1.0]hex-2-en-1-yl)-5-methylpyrimidine-2,4(1H,3H)-dione]
Anti-HIV activity (HIV-1): inactive

Nc1nc2c(ncn2[C@@]23C=C[C@@H](CO)[C@@H]2C3)c(=O)[nH]1 [Compound 6b, 2-Amino-9-((1′S, 4′R, 5′S)-4-(hydroxymethyl)bicyclo[3.1.0]hex-2-en-1-yl)-1H-purin-6(9H)-one]
Anti-HIV activity (HIV-1): inactive

Nc1ncnc2c1ncn2[C@@]12C=C[C@@H](CO)[C@@H]1C2 [Compound 6c, ((1′S, 2′R, 5′S)-5-(6-Amino-9H-purin-9-yl)bicyclo[3.1.0]hex-3-en-2-yl)methanol]
Anti-HIV activity (HIV-1): inactive

Nc1ccn([C@@]23C=C[C@@H](CO)[C@@H]2C3)c(=O)n1 [Compound 6d, 4-Amino-1-((1′S, 4′R, 5′S)-4-(hydroxymethyl)bicyclo[3.1.0]hex-2-en-1-yl)pyrimidin-2(1H)-one]
Selectivity index, HOS-313 cells [2]: 130
EC50 [2]: 3 µM
Anti-HIV activity (HIV-1): +/− active
Selectivity index (cytotoxicity versus infectivity), HOS cells [3]: 15.8
EC50 [3]: 26.8 µM

Cc1cn([C@H]2C=C[C@@H](CO)O2)c(=O)[nH]c1=O [Compound D4T, stavudine]
Phosphorylation by cellular thymidine kinase (TK), less efficient than for AZT [1]: 500 fold
